Experimental data from the supplement of paper PMC10331698.
± gives the standard deviation of the averaged measurements.

Key:
Experiment in all cases: level (log10 ratio to DMSO vehicle control); higher = higher biomarker level / cell amount than vehicle control
[1] = compound: OCCC(F)(F)C(F)(F)C(F)(F)C(F)(F)F [4:2 Fluorotelomer alcohol] (in DMSO)
Method: (§1)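 BioMAP Diversity Plus panel of 12 human primary cell co-culture systems (3C, 4H, LPS, SAg, BT, BF4T, BE3C, CASM3C, HDF3CGF, KF3CT, MyoF, Mphg). Compounds were added 1 h before stimulation and left for 24 h (MyoF 48 h; BT 72 h for soluble read-outs or 6 d for IgG). Biomarkers were read by ELISA, cytotoxicity by SRB, PBMC viability and proliferation by Alamar Blue. Each well value was divided by the mean of 8 DMSO control wells on the same plate and log10 transformed; duplicate blinded samples were tested at 4 concentrations.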

[2] = compound: O=C(O)C(F)(OC(F)(F)C(F)(F)C(F)(F)F)C(F)(F)F [Ammonium perfluoro-2-methyl-3-oxahexanoate] (in Water)
Method: as §1

Perfluorononanoic acid = compound: O=C(O)C(F)(F)C(F)(F)C(F)(F)C(F)(F)C(F)(F)C(F)(F)C(F)(F)C(F)(F)F [Perfluorononanoic acid] (in DMSO)
Method: as §1

[3] = compound: OCC(F)(F)OC(F)(F)C(F)(F)OC(F)(F)C(F)(F)OC(F)(F)CO [1H,1H,11H,11H-Perfluorotetraethylene glycol] (in DMSO)
Method: as §1

[4] = compound: CN(C(=O)C(F)(F)C(F)(F)C(F)(F)F)[Si](C)(C)C [N-Methyl-N-trimethylsilylheptafluorobutyramide] (in DMSO)
Method: as §1

[5] = compound: CO[Si](C)(CCC(F)(F)C(F)(F)C(F)(F)C(F)(F)C(F)(F)C(F)(F)F)OC [Dimethoxymethyl((perfluorohexyl)ethyl)silane] (in DMSO)
Method: as §1

Octafluoroadipic acid = compound: O=C(O)C(F)(F)C(F)(F)C(F)(F)C(F)(F)C(=O)O [Octafluoroadipic acid] (in DMSO)
Method: as §1

Perfluoroundecanoic acid = compound: O=C(O)C(F)(F)C(F)(F)C(F)(F)C(F)(F)C(F)(F)C(F)(F)C(F)(F)C(F)(F)C(F)(F)C(F)(F)F [Perfluoroundecanoic acid] (in DMSO); settings: 6700 nM
Method: as §1

Test System | level (log10) ([1]; 6700 nM) | level (log10) ([1]; 20000 nM) | level (log10) ([1]; 60000 nM) | level (log10) ([2]; 6700 nM) | level (log10) ([2]; 20000 nM) | level (log10) ([2]; 60000 nM) | level (log10) (Perfluorononanoic acid; 6700 nM) | level (log10) (Perfluorononanoic acid; 20000 nM) | level (log10) ([3]; 6700 nM) | level (log10) ([3]; 20000 nM) | level (log10) ([3]; 60000 nM) | level (log10) ([4]; 6700 nM) | level (log10) ([4]; 20000 nM) | level (log10) ([4]; 60000 nM) | level (log10) ([5]; 6700 nM) | level (log10) ([5]; 20000 nM) | level (log10) (Octafluoroadipic acid; 6700 nM) | level (log10) (Octafluoroadipic acid; 20000 nM) | level (log10) (Octafluoroadipic acid; 60000 nM) | level (log10) (Perfluoroundecanoic acid)
3C:CCL2/MCP-1 | -0.0545 ± 0.074 | -0.0225 ± 0.044 | 0.032 ± 0.011 | -0.003 ± 0.0085 | -0.004 ± 0.016 | 0.056 ± 0.05 | -0.014 ± 0.038 | -0.0045 ± 0.016 | -0.001 ± 0.018 | -0.005 ± 0.027 | -0.015 ± 0.0057 | -0.009 ± 0.014 | -0.0075 ± 0.0064 | 0.0005 ± 0.016 | -0.0005 ± 0.0021 | 0.012 ± 0.0042 | -0.0115 ± 0.0064 | -0.0105 ± 0.011 | 0.0135 ± 0.036 | 0.009 ± 0.0042
3C:CD54/ICAM-1 | -0.025 ± 0.018 | -0.018 ± 0.017 | 0.006 ± 0.0042 | -0.0255 ± 0.0092 | 0.0065 ± 0.00071 | 0.0055 ± 0.011 | -0.028 ± 0.0014 | -0.023 ± 0.0099 | 0.0015 ± 0.00071 | -0.009 ± 0.0071 | 0.007 | -0.0045 ± 0.022 | -0.014 ± 0.0042 | 0.015 ± 0.011 | -0.008 ± 0.0085 | 0.0265 ± 0.016 | -0.007 ± 0.014 | -0.0075 ± 0.018 | -0.0065 ± 0.013 | -0.009 ± 0.0042
3C:CD62E/E-Selectin | -0.019 ± 0.021 | -0.012 ± 0.0014 | -0.0105 ± 0.0078 | 0.0025 ± 0.005 | 0.0105 ± 0.011 | 0.011 ± 0.011 | -0.0195 ± 0.0078 | -0.013 ± 0.013 | -0.0145 ± 0.029 | -0.008 ± 0.038 | -0.0375 ± 0.036 | -0.0115 ± 0.015 | -0.007 ± 0.0042 | 0.0015 ± 0.037 | -0.023 ± 0.0042 | -0.0235 ± 0.005 | -0.029 ± 0.0071 | -0.004 ± 0.016 | -0.0205 ± 0.0078 | -0.0135 ± 0.04
3C:CD106/VCAM-1 | -0.0205 ± 0.016 | -0.011 ± 0.011 | -0.0095 ± 0.011 | -0.0065 ± 0.0035 | -0.0245 ± 0.0035 | -0.0155 ± 0.00071 | -0.0205 ± 0.016 | -0.0195 ± 0.023 | -0.01 ± 0.0057 | -0.015 ± 0.0071 | -0.004 ± 0.011 | -0.0245 ± 0.0021 | -0.01 ± 0.016 | 0.0025 ± 0.012 | -0.0115 ± 0.035 | -0.009 ± 0.024 | 0.0005 ± 0.019 | -0.0015 ± 0.0092 | 0.0055 ± 0.00071 | -0.001 ± 0.044
3C:CD141/Thrombomodulin | -0.0175 ± 0.013 | -0.001 ± 0.0085 | -0.0005 ± 0.019 | -0.0395 ± 0.03 | -0.0315 ± 0.011 | -0.057 ± 0.0028 | -0.0225 ± 0.00071 | -0.0285 ± 0.011 | -0.0145 ± 0.039 | 0.005 ± 0.028 | 0.051 ± 0.021 | -0.024 ± 0.016 | -0.022 ± 0.014 | -0.0115 ± 0.0092 | -0.0035 ± 0.0021 | -0.0275 ± 0.025 | 0.0125 ± 0.025 | 0.016 ± 0.03 | 0.0195 ± 0.05 | -0.023 ± 0.047
3C:CD142/Tissue Factor | -0.016 ± 0.018 | -0.04 ± 0.045 | -0.0375 ± 0.00071 | 0.0735 ± 0.012 | 0.0805 ± 0.0078 | 0.0805 ± 0.00071 | -0.0555 ± 0.0021 | -0.0455 ± 0.032 | -0.0315 ± 0.037 | -0.009 ± 0.0014 | -0.013 ± 0.05 | 0.0195 ± 0.044 | 0.02 ± 0.013 | 0.026 ± 0.033 | 0.015 ± 0.02 | 0.021 ± 0.033 | 0.02 ± 0.061 | 0.0375 ± 0.067 | 0.0085 ± 0.061 | -0.008 ± 0.016
BE3C:Keratin 8/18 | -0.034 ± 0.057 | -0.02 ± 0.02 | 0.0085 ± 0.026 | -0.042 ± 0.0042 | -0.019 ± 0.024 | -0.0165 ± 0.0092 | -0.0335 ± 0.04 | -0.0365 ± 0.032 | 0.0025 ± 0.049 | -0.0065 ± 0.00071 | -0.023 ± 0.025 | -0.013 ± 0.023 | 0.001 ± 0.013 | 0.019 ± 0.0085 | 0.0155 ± 0.011 | 0.0075 ± 0.005 | -0.0095 ± 0.0078 | -0.0105 ± 0.025 | 0.0095 ± 0.0021 | -0.045 ± 0.023
BE3C:MMP-1 | -0.023 ± 0.078 | -0.023 ± 0.058 | 0.0145 ± 0.0064 | 0.0325 ± 0.032 | 0.062 ± 0.038 | 0.136 ± 0.013 | 0.05 ± 0.059 | 0.221 ± 0.035 | -0.001 ± 0.0057 | 0.022 | 0.0915 ± 0.057 | -0.0015 ± 0.011 | -0.02 ± 0.0071 | 0.0295 ± 0.033 | -0.0085 ± 0.03 | 0.034 ± 0.033 | -0.0145 ± 0.025 | -0.0205 ± 0.037 | 0.0155 ± 0.0021 | 0.135 ± 0.011
BE3C:MMP-9 | 0.0015 ± 0.0078 | -0.014 ± 0.013 | 0.009 ± 0.011 | -0.109 ± 0.051 | -0.09 ± 0.03 | -0.063 ± 0.035 | -0.0075 ± 0.00071 | 0.0055 ± 0.011 | 0 ± 0.017 | -0.0345 ± 0.0021 | -0.0795 ± 0.0035 | -0.023 ± 0.0042 | -0.012 ± 0.0085 | 0.015 ± 0.02 | -0.006 ± 0.0042 | -0.017 ± 0.013 | -0.0065 ± 0.022 | -0.002 ± 0.016 | 0.0065 ± 0.0064 | -0.139 ± 0.013
BE3C:PAI-I | -0.0355 ± 0.023 | -0.03 ± 0.045 | 0.0365 ± 0.016 | -0.0995 ± 0.057 | -0.092 ± 0.044 | -0.124 ± 0.012 | -0.013 ± 0.042 | -0.101 ± 0.019 | 0.0145 ± 0.012 | -0.0035 ± 0.021 | -0.072 ± 0.018 | -0.0045 ± 0.047 | -0.013 ± 0.017 | -0.012 ± 0.02 | 0.009 ± 0.033 | -0.0245 ± 0.023 | -0.0025 ± 0.005 | 0.0015 ± 0.0035 | 0.0025 ± 0.0035 | -0.292 ± 0.023
BE3C:SRB | -0.004 | -0.001 ± 0.0014 | -0.0005 ± 0.005 | -0.003 ± 0.0042 | 0 ± 0.0014 | 0.003 ± 0.0099 | -0.0015 ± 0.005 | -0.04 ± 0.0028 | -0.004 ± 0.0057 | -0.0055 ± 0.00071 | -0.0115 ± 0.00071 | -0.006 ± 0.0057 | -0.003 ± 0.0028 | 0 ± 0.0028 | -0.0035 ± 0.0035 | -0.003 ± 0.0042 | 0.0035 ± 0.005 | 0.0005 ± 0.0035 | -0.0035 ± 0.0092 | -0.0555 ± 0.012
BE3C:tPA | -0.0115 ± 0.0035 | -0.015 | 0.013 ± 0.016 | -0.101 ± 0.047 | -0.0935 ± 0.021 | -0.0945 ± 0.021 | -0.012 ± 0.0042 | -0.172 ± 0.023 | -0.0145 ± 0.035 | -0.0265 ± 0.044 | -0.008 ± 0.061 | -0.018 ± 0.025 | -0.0275 ± 0.0064 | -0.0195 ± 0.011 | 0.0005 ± 0.026 | -0.026 ± 0.037 | -0.003 ± 0.0028 | 0.004 ± 0.0099 | 0.0015 ± 0.0064 | 0.003 ± 0.0028
BE3C:uPA | -0.032 ± 0.065 | -0.014 ± 0.058 | 0.014 ± 0.027 | 0.033 ± 0.027 | 0.0315 ± 0.016 | 0.0245 ± 0.012 | -0.0445 ± 0.08 | -0.0195 ± 0.076 | -0.0105 ± 0.011 | 0.0055 ± 0.013 | -0.0075 ± 0.0021 | 0.0045 ± 0.032 | -0.0105 ± 0.026 | 0.015 ± 0.0071 | 0.0115 ± 0.011 | -0.0055 ± 0.013 | -0.002 ± 0.02 | -0.0135 ± 0.005 | -0.0005 ± 0.0021 | 0.0255 ± 0.00071
CASM3C:CCL2/MCP-1 | -0.023 ± 0.038 | -0.0055 ± 0.039 | -0.008 ± 0.05 | -0.0235 ± 0.021 | -0.034 ± 0.035 | -0.013 ± 0.013 | -0.0295 ± 0.049 | -0.0085 ± 0.054 | 0.0125 ± 0.012 | -0.007 ± 0.017 | -0.004 ± 0.017 | -0.0115 ± 0.0064 | -0.001 ± 0.02 | 0.0165 ± 0.013 | -0.013 | 0.02 ± 0.016 | -0.0085 ± 0.0092 | -0.0065 ± 0.011 | 0.015 ± 0.038 | 0.0065 ± 0.015
